The text below walks through data of patent US20250282785A1, “PYRROLIDINONE DERIVATIVES AS INHIBITORS OF NF KAPPA B INDUCING KINASE” (priority 2022, published 2025).

Experiment [1] deals with Recombinant Human NF-Kappab-Inducing Kinase (NIK/MAP3K14) (Homo sapiens, UniProt Q99558). Description: Inhibition of auto-phosphorylation of recombinant human NIK/MAP3K14 (AlphaScreen). The class given is biochemical. The following applies: NIK/MAP3K14 auto-phosphorylation, 5 microM ATP, 1 nM enzyme, 2 h at 25° C.; average of values; read-out: Assay 1 IC50. The method, then: Biological Assay 1: Inhibition of Auto-Phosphorylation of Recombinant Human NF-Kappab-Inducing Kinase (NIK/MAP3K14) Activity (AlphaScreen®)
NIK/MAP3K14 auto-phosphorylation activity was measured using the AlphaScreen® ((αscreen) format (Perkin ElmeR). All compounds tested were dissolved in dimethyl sulfoxide (DMSO) and further dilutions were made in assay buffer. Final DMSO concentration was 0.7% (v/v) in assays. Assay buffer was 50 mM Tris pH 7.5 containing 1 mM EGTA (ethylene glycol tetraacetic acid), 1 mM DTT (dithiothreitol), 0.1 mM Na3VO4, 5 mM MgCl2, 0.01% Tween® 20. Assays were carried out in 384 well Proxiplates (Perkin ElmeR). Incubations consisted of compound, 5 microM Adenosine-5′-triphosphate (ATP), and 1 nM NIK/MAP3K14. Incubations were initiated by addition of GST-tagged NIK/MAP3K14 enzyme, carried out for 2 h at 25° C. and terminated by addition of stop buffer containing anti-phospho-IKK Ser176/180 antibody. Protein A Acceptor and Glutathione-donor beads were added before reading using an EnVision® Multilabel Plate Reader (Perkin ElmeR). Signal obtained in the wells was normalized using high (full enzyme activity, 0.7% DMSO) and low controls (no enzyme activity, 0.7% DMSO, no ATP). IC50's were determined by fitting a sigmoidal curve to % inhibition of control versus Log10 compound concentration.

In experiment [2] the test system is p-IKKα levels in L363 (NIK translocated multiple myeloma) cells. Briefly: Effect of compounds on p-IKKα levels in L363 cells (AlphaLISA SureFire Ultra). As to conditions: Homo sapiens, L-363; L363 cells, BAFF stimulated, MG132, 6 h; average of values; read-out: Assay 2 IC50. The class given is cell-based. The procedure: Biological Assay 2: Effect of Compounds on p-IKKα Levels in L363 (NIK Translocated Multiple Myeloma) Cells
All compounds tested were dissolved and serially diluted in DMSO, 1:3 dilution for 11 points in an Echo compatible plate. 100% DMSO is added to columns 12 and 24 of the plate to serve as high and low signal controls. This compound plate was used to spot 20 nl of compound or DMSO into a Greiner 384 well TC plate (781080). Final DMSO concentration was […] (v/v) in cell assays. Human L363 cells (ATCC) were cultured in RPMI 1640 medium supplemented with GlutaMax, non-essential amino acids, sodium pyruvate and 10% fetal bovine serum. Cells were routinely maintained at densities of 0.2×10^6 cells per ml −2×10^6 cells per ml at 37° C. in a humidified 5% CO2 atmosphere incubator. Cells were passaged twice a week splitting back to obtain the low density. The day before the assay, cells were washed twice in HBSS, resuspended in DMEM+0.5% IgG and protease free BSA (Jackson Immuno Research Laboratories), +/−250 ng/ml recombinant human B-cell activating factor (BAFF/BLyS/TNFSF13B) and incubated overnight at 37° C. in a humidified 5% CO2 atmosphere (bulk stimulation with or without BAFF). The next day, cell concentration was adjusted to 1×10^7 cells/ml in DMEM+/−250 ng/ml BAFF+/−10 uM MG132 and plated at 10 ul/well into compound or DMSO spotted 384 well TC plates. Seeded cells were incubated at 37° C. in a humidified 5% CO2 atmosphere for 6 h. After 6 h, plates were removed from the incubator and cell lysis was achieved by the addition of 2.5 μl 5× lysis buffer containing protease and phosphatase inhibitors, followed by shaking on a plate shaker at room temperature for 15 min. At the end of this incubation, lysed cells were sequentially treated and incubated with acceptor and donor bead mixes according to the manufacturer's protocol for a 1 plate/2-incubation suspension cell assay (AlphaLISA SureFire Ultra p-IKKα (Ser 176/180) Assay Kit (Perkin ElmeR). Plates were read using an EnVision® Multilabel Plate Reader (Perkin ElmeR). Within an experiment, a concentration response curve for each compound was run in duplicate. Signal obtained in the test wells was normalized using high signal (BAFF stimulated cells, DMSO, MG132) and low signal (unstimulated cells, DMSO) controls. To determine the IC50, a sigmoidal curve was fitted to the plot of % inhibition versus Log10 compound concentration.

Chain of Recombinant Human NF-Kappab-Inducing Kinase (NIK/MAP3K14) (Q99558 whole entry): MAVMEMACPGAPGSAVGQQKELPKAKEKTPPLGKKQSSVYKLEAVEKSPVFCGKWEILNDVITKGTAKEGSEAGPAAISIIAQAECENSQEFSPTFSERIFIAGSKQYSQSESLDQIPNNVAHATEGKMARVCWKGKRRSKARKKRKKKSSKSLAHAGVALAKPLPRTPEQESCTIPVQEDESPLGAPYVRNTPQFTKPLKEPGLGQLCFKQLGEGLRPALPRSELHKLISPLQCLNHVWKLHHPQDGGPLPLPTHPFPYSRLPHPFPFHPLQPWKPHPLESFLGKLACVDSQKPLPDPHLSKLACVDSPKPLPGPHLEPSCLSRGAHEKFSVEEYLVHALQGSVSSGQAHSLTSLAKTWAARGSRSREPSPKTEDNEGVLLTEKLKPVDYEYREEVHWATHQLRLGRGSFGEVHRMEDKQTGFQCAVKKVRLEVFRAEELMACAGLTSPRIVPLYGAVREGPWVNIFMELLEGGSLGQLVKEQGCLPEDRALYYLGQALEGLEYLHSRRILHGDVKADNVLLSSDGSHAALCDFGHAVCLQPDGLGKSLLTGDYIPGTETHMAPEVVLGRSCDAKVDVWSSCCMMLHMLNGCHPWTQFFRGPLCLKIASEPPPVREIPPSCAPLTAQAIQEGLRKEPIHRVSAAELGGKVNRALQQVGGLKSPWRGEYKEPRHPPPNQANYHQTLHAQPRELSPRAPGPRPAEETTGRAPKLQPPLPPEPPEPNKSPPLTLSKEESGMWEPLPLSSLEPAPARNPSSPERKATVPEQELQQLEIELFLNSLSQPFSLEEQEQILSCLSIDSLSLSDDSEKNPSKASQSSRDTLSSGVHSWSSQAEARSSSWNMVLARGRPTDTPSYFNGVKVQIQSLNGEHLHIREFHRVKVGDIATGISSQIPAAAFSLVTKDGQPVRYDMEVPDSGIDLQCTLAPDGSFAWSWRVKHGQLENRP

Take `Cc1nc(N)c2nc(-c3cccc(-c4cc([C@]5(O)CCN(C)C5=O)on4)c3)ccc2n1` [Example 1, (R)-3-(3-(3-(4-Amino-2-methylpyrido[3,2-d]pyrimidin-6-yl)phenyl)isoxazol-5-yl)-3-hydroxy-1-methylpyrrolidin-2-one]: the IC50 in experiment [1] was under 100 nM; in experiment [2], 100 to 500 nM.

With `[2H]c1nc(N)c2nc(-c3cccc(-c4cc([C@]5(O)CCN(C)C5=O)on4)c3)ccc2n1` [Example 2, (R)-3-(3-(3-(4-Aminopyrido[3,2-d]pyrimidin-6-yl-2-d)phenyl)isoxazol-5-yl)-3-hydroxy-1-methylpyrrolidin-2-one], the 50% inhibitory concentration (IC50) is under 100 nM in experiment [1] and 100 to 500 nM in experiment [2].

`Cc1nc(N)c2nc(-c3cccc(-c4cc([C@]5(O)CCN(C)C5=O)no4)c3)ccc2n1` [Example 3, (R)-3-(5-(3-(4-Amino-2-methylpyrido[3,2-d]pyrimidin-6-yl)phenyl)isoxazol-3-yl)-3-hydroxy-1-methylpyrrolidin-2-one]: the IC50 in experiment [1] was under 100 nM; in experiment [2] it was over 501 nM.

With `CN1CC[C@@](O)(c2cc(-c3cccc(-c4ccc5[nH]nc(N)c5n4)c3)no2)C1=O` [Example 4, (R)-3-(3-(3-(3-Amino-1H-pyrazolo[4,3-b]pyridin-5-yl)phenyl)isoxazol-5-yl)-3-hydroxy-1-methylpyrrolidin-2-one], the IC50 was under 100 nM in experiment [1] and over 501 nM in experiment [2].

As for `CN1CC[C@@](O)(c2cc(-c3cccc(-c4ccc5c(n4)c(N)nn5C)c3)no2)C1=O` [Example 5, (R)-3-(3-(3-(3-Amino-1-methyl-1H-pyrazolo[4,3-b]pyridin-5-yl)phenyl)isoxazol-5-yl)-3-hydroxy-1-methylpyrrolidin-2-one], the values for the half-maximal inhibitory concentration (IC50) in experiment [1] and in experiment [2] were 100 to 500 nM and over 501 nM, respectively.

Take `CN1CC[C@@](O)(c2cc(-c3cccc(-c4ccc(N)c(C(N)=O)n4)c3)no2)C1=O` [Example 7, (R)-3-Amino-6-(3-(5-(3-hydroxy-1-methyl-2-oxopyrrolidin-3-yl)isoxazol-3-yl)phenyl)picolinamide]: the 50% inhibitory concentration (IC50) in experiment [1] and in experiment [2] was under 100 nM in each case.

On to `COc1cc(C(N)=O)nc(-c2cccc(-c3cc([C@]4(O)CCN(C)C4=O)on3)c2)c1` [Example 8, (R)-6-(3-(5-(3-Hydroxy-1-methyl-2-oxopyrrolidin-3-yl)isoxazol-3-yl)phenyl)-4-methoxypicolinamide], for which the IC50 was under 100 nM in experiment [1] and 100 to 500 nM in experiment [2].

Turning to `CN1CC[C@@](O)(c2cc(-c3cccc(-c4ncc5ccnc(N)c5n4)c3)no2)C1=O` [Example 10, (R)-3-(3-(3-(8-Aminopyrido[3,4-d]pyrimidin-2-yl)phenyl)isoxazol-5-yl)-3-hydroxy-1-methylpyrrolidin-2-one], the IC50 is under 100 nM in experiment [1] and over 501 nM in experiment [2].

`CN1CC[C@@](O)(c2cc(-c3cccc(-c4ccc5ncnc(N6CCC6)c5n4)c3)no2)C1=O` [Example 11, (R)-3-(3-(3-(4-(Azetidin-1-yl)pyrido[3,2-d]pyrimidin-6-yl)phenyl)isoxazol-5-yl)-3-hydroxy-1-methylpyrrolidin-2-one]: the IC50 was under 100 nM in experiment [1] and over 501 nM in experiment [2].

Consider `Cc1ccc(-c2cc([C@]3(O)CCN(C)C3=O)on2)cc1-c1nc2c(N)ncnc2s1` [Example 12, (R)-3-(3-(3-(7-Aminothiazolo[5,4-d]pyrimidin-2-yl)-4-methylphenyl)isoxazol-5-yl)-3-hydroxy-1-methylpyrrolidin-2-one], for which the IC50 in experiment [1] is under 100 nM; in experiment [2] it was over 501 nM.

As for `CN1CC[C@@](O)(c2cc(-c3cccc(-c4nc5c(N)ncnc5s4)c3)no2)C1=O` [Example 13, (R)-3-(3-(3-(7-Aminothiazolo[5,4-d]pyrimidin-2-yl)phenyl)isoxazol-5-yl)-3-hydroxy-1-methylpyrrolidin-2-one], the IC50 in experiment [1] was under 100 nM; in experiment [2], over 501 nM.

`CN1CC[C@@](O)(c2cn(-c3cccc(-c4cccc(C(N)=O)n4)c3)nn2)C1=O` [Example 14, (R)-6-(3-(4-(3-Hydroxy-1-methyl-2-oxopyrrolidin-3-yl)-1H-1,2,3-triazol-1-yl)phenyl)picolinamide]: the results for the IC50 in experiment [1] and in experiment [2] were under 100 nM and over 501 nM, respectively.

Take `CN1CC[C@@](O)(c2cn(-c3cccc(-c4nc(C(N)=O)n5ccccc45)c3)nn2)C1=O` [Example 15, (R)-1-(3-(4-(3-Hydroxy-1-methyl-2-oxopyrrolidin-3-yl)-1H-1,2,3-triazol-1-yl)phenyl)imidazo[1,5-a]pyridine-3-carboxamide]: the concentration for half-maximal inhibition (IC50) in experiment [1] and in experiment [2] was under 100 nM in each case.

As to `[2H]c1nc(N)c2nc(-c3cccc(-c4cc([C@]5(O)CCN(C)C5=O)no4)c3)ccc2n1` [Example 16, (R)-3-(5-(3-(4-Aminopyrido[3,2-d]pyrimidin-6-yl-2-d)phenyl)isoxazol-3-yl)-3-hydroxy-1-methylpyrrolidin-2-one], the values for the IC50 in experiment [1] and in experiment [2] were under 100 nM and 100 to 500 nM, respectively.

Regarding `CN1CC[C@@](O)(c2cc(-c3cccc(-c4ccc5[nH]nc(N)c5n4)c3)on2)C1=O` [Example 17, (R)-3-(5-(3-(3-Amino-1H-pyrazolo[4,3-b]pyridin-5-yl)phenyl)isoxazol-3-yl)-3-hydroxy-1-methylpyrrolidin-2-one], the IC50 in experiment [1] was under 100 nM; in experiment [2], over 501 nM.

Regarding `CN1CC[C@@](O)(c2cc(-c3cccc(-c4cccc(C(N)=O)n4)c3)on2)C1=O` [Example 18, (R)-6-(3-(3-(3-Hydroxy-1-methyl-2-oxopyrrolidin-3-yl)isoxazol-5-yl)phenyl)picolinamide], the 50% inhibitory concentration (IC50) was under 100 nM in experiment [1] and over 501 nM in experiment [2].

For `CN1CC[C@@](O)(c2cc(-c3ccnc(N4CCc5ccnc(N)c5C4)c3)no2)C1=O` [Example 20, (R)-3-(3-(2-(8-Amino-3,4-dihydro-2,7-naphthyridin-2(1H)-yl)pyridin-4-yl)isoxazol-5-yl)-3-hydroxy-1-methylpyrrolidin-2-one], the IC50 is 100 to 500 nM in experiment [1] and over 501 nM in experiment [2].

As for `COc1cc(C(N)=O)nc(-c2cc(-c3cc([C@]4(O)CCN(C)C4=O)on3)ccn2)c1` [Example 21, (R)-4′-(5-(3-Hydroxy-1-methyl-2-oxopyrrolidin-3-yl)isoxazol-3-yl)-4-methoxy-[2,2′-bipyridine]-6-carboxamide], the figures for the IC50 in experiment [1] and in experiment [2] were under 100 nM and over 501 nM, respectively.

Turning to `CN1CC[C@@](O)(c2cc(-c3ccnc(-n4nc(C(N)=O)c5ccccc54)c3)no2)C1=O` [Example 22, (R)-1-(4-(5-(3-Hydroxy-1-methyl-2-oxopyrrolidin-3-yl)isoxazol-3-yl)pyridin-2-yl)-1H-indazole-3-carboxamide], the half-inhibitory concentration (IC50) in experiment [1] and in experiment [2] was under 100 nM each time.

Turning to `CN1CC[C@@](O)(c2cc(-c3cccc(-c4nc(C(N)=O)n5ccccc45)c3)no2)C1=O` [Example 23, (R)-1-(3-(5-(3-Hydroxy-1-methyl-2-oxopyrrolidin-3-yl)isoxazol-3-yl)phenyl)imidazo[1,5-a]pyridine-3-carboxamide], the IC50 in experiment [1] and in experiment [2] was under 100 nM in each case.

`CN1CC[C@@](O)(c2cc(-c3cccc(-c4c[nH]c5ncccc45)c3)no2)C1=O` [Example 24, (R)-3-(3-(3-(1H-Pyrrolo[2,3-b]pyridin-3-yl)phenyl)isoxazol-5-yl)-3-hydroxy-1-methylpyrrolidin-2-one]: the 50% inhibitory concentration (IC50) was 100 to 500 nM in experiment [1] and over 501 nM in experiment [2].
